Like-named read-outs stand apart in the source and are kept apart here.
Assays:
PSMA [1] = biological target: T1, PSMA (Homo sapiens, UniProt Q04609); details: LNCaP cells, 1 h, 4 °C, n = 3; read-out: IC50 (binding affinity); cited from earlier work
T1 construct: host or cells: LNCaP cells

[2] = design: method as in PMID 16888726, doi:10.1016/j.jfluchem.2010.10.008; details: cited from earlier work
human serum albumin [3] = biological target: T2, human serum albumin (Homo sapiens, UniProt P02768); experiment: Human serum albumin binding on Chiralpak HSA column; assay type: in vitro ADME
T2 construct: purchased
T2 sequence (P02768 25-609): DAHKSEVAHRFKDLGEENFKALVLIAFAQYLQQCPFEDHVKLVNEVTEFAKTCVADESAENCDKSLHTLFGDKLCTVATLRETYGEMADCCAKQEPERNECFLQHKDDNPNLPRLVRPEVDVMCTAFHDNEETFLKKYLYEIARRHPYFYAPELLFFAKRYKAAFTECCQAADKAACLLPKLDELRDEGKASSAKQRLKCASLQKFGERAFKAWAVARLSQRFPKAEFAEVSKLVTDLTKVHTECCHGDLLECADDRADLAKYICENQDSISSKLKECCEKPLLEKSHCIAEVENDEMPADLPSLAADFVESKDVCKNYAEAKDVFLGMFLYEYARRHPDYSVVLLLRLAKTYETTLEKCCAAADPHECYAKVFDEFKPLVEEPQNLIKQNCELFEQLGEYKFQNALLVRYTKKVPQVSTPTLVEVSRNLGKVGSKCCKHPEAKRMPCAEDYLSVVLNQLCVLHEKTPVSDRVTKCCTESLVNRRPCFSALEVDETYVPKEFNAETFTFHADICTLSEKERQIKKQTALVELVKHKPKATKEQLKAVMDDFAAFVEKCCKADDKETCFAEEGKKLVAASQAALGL
Protocol: Approximately 1 MBq of the ^18F-ligand was dissolved in 1 mL of a 1:1 mixture (v/v) of phosphate-buffered saline (PBS, pH 7.4) and n-octanol (n = 18–23). After vigorous mixing of the suspension for 3 min, the vial was centrifuged at 15,000 × g for 3 min and 100 μL aliquots of both layers were measured in a γ-counter. HSA binding of ^19F-^natGa-rhPSMA ligands was determined according to a previously published procedure.

LNCaP cells [4] = experiment: Internalization into LNCaP cells relative to ([125I]I-BA)KuE; assay type: cell-based; details: 1 h, 37 °C, percentage of reference ligand ([125I]I-BA)KuE, n = 3-6
Protocol: (§1) Competitive binding studies were determined on LNCaP cells (1.5 × 10^5 cells in 1 mL/well) after incubation at 4 °C for 1 h, using (((S)-1-carboxy-5-(4-([^125I]iodo)benzamido)pentyl)carbamoyl)-L-glutamic acid (([^125I]I-BA)KuE; 0.2 nM/well) as reference radioligand (n = 5–9). Internalization studies of the radiolabeled ligands (0.5 nM/well) were performed on LNCaP cells (1.25 × 10^5 cells in 1 mL/well) at 37 °C for 1 h and accompanied by ([^125I]I-BA)KuE (0.2 nM/well), as reference. Data were corrected for non-specific binding and normalized to the specific internalization observed for the reference (n = 3–6). A detailed description of the experimental procedures was previously published.

PSMA [5] = biological target: T1, PSMA; experiment: Competitive binding (IC50) on LNCaP cells vs ([125I]I-BA)KuE; details: ratio of IC50 values
Protocol: as §1

[6] = test system: LNCaP tumor-bearing male CB-17 SCID mice; experiment: Biodistribution 1 h p.i.; assay type: in vivo
Protocol: (§2) LNCaP tumor xenografts were established in 6–8 weeks old male CB-17 SCID mice as described previously.
(§3) 1–3 MBq (0.2 nmol) of the [^18F, ^natGa]rhPSMA inhibitors were injected into the tail vein of LNCaP tumor-bearing male CB-17 SCID mice that were sacrificed 1 h post injection (p.i.) (n = 4 for 7.1, n = 5 for 7.2, n = 4 for 7.3, n = 5 for 7.4 and n = 3 for 7). Selected organs were removed, weighed, and measured in a γ-counter. For competition studies, 8 mg/kg of 2-PMPA (2-(Phosphonomethyl)-pentandioic acid) were co-administered (n = 3).

[7] = test system: LNCaP tumor-bearing male CB-17 SCID mice; experiment: Biodistribution 1 h p.i. with competition (co-injection of 2-PMPA); assay type: in vivo; details: co-injected with 2-PMPA (8 mg/kg), n = 3
Protocol: as §2, §3

LNCaP tumor-bearing mice = experiment: Differential uptake and excretion pattern of isomers after injection of the diastereomeric mixture (radio-HPLC); assay type: in vivo; details: blood, liver, kidney and tumor, 30 min p.i., n = 4
Protocol: With the intention to identify even marginal differences in the in vivo behavior, all four [^18F, ^natGa]rhPSMA-7 isomers were co-evaluated in one single tumor-bearing mouse in order to quantify the differential uptake and excretion pattern of each isomer. For this purpose, the diastereomeric mixture [^18F, ^natGa]rhPSMA-7 was produced in high molar activity (AM) of 247–349 GBq/µmol (at end of synthesis) and the abundance of each isomer was determined by radio-HPLC. Mice (n = 4) were injected with [^18F, ^natGa]rhPSMA-7 (180–280 MBq, 0.9–1.0 nmol) and left under anesthesia. After 30 min p.i., they were sacrificed and urine, blood, liver, kidneys and tumor were collected and processed. Radioactivity was extracted from solid tissues by means of a Potter–Elvehjem tissue grinder (n = 1) or a ball mill (n = 3) and separated from the protein fraction by subsequent cartridge-based solid-phase extraction (SPE). Blood samples were diluted, centrifuged and the supernatant was purified by SPE (see supporting information). Urine and extracts from tissue samples were then analyzed by radio-HPLC to quantify the fraction of each isomer in each sample. Finally, the relative percentage difference between the abundance of each isomer in the injected diastereomeric mixture (values taken from the quality control) and the abundance of the respective isomer in each analyzed tissue or body fluid was calculated. […] PeakFit allows for automated nonlinear separation, analysis and quantification of HPLC elution profiles by deconvolution procedures that uses a Gaussian response function with a Fourier deconvolution/filtering algorithm (see Additional file 1: Fig. 7).
Extraction via the Potter-Elvehjem Tissue Grinder. Tumor and kidneys were separately homogenized in the tissue homogeniser with 1 mL of extraction buffer (850 μL 1 M HEPES pH 7.4, 100 μL 20 mM PMPA and 100 μL 1 M NaCl) for 30 min. The resulting homogenate was collected and centrifuged at 13000×g for 5 min. Subsequently, the supernatant was collected, centrifuged again (13000×g, 5 min) and loaded on a Strata X cartridge (33 μm Polymeric Reversed Phase 500 mg) preconditioned with 5 mL MeOH, followed by 5 mL H2O. After washing with 5 mL H2O, the cartridge was eluted with a 3:2 mixture (v/v) of MeCN in H2O supplemented with 1% TFA. For radio-HPLC analysis the eluates were diluted with water.
Extraction via the MM-400 Ball Mill. The samples (tumor, kidney, liver) were separately homogenized in a 2 mL tube together with 3 grinding balls (3 mm diameter) and 1 mL of extraction buffer (850 μL 1 M HEPES pH 7.4, 100 μL 20 mM PMPA and 100 μL 1 M NaCl) for 10 min at 30 Hz. The homogenate was centrifuged at 13 000×g for 5 min and the supernatant was collected. […]

[8] = n-octanol/PBS pH 7.4, cited from earlier work
human serum albumin [9] = biological target: T2, human serum albumin; details: Chiralpak HSA column, cited from earlier work
LNCaP cells [10] = details: 1 h, 37 °C, percentage of reference ligand ([125I]I-BA)KuE, n = 3; cited from earlier work

T1 sequence (Q04609 whole entry): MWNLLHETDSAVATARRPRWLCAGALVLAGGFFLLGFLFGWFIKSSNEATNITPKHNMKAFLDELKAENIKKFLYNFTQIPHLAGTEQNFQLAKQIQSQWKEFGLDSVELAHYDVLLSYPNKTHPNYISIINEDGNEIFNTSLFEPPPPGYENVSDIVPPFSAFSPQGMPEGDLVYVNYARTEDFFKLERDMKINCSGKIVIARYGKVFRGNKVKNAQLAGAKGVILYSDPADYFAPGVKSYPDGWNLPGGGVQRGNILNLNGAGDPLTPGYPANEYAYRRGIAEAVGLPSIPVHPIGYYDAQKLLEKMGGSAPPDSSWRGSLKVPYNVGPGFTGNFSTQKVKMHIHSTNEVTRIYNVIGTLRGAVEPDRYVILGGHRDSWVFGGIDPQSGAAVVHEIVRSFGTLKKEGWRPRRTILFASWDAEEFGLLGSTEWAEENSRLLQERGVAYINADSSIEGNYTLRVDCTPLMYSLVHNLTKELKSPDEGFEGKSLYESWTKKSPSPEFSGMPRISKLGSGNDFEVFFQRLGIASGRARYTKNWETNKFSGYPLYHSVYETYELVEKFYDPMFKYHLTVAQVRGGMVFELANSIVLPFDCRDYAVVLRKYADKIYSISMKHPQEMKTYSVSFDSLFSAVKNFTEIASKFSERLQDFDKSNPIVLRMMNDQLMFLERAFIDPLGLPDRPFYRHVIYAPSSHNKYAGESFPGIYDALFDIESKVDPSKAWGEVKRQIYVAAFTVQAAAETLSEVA

| SMILES | HSA-binding (human serum albumin [3]) [%] | Internalization (internalized activity) (LNCaP cells [4]) | Biodistribution Adrenals [6] [% ID/g] | Biodistribution Blood [6] [% ID/g] | Biodistribution Bone [6] [% ID/g] | Biodistribution Heart [6] [% ID/g] | Biodistribution Intestine [6] [% ID/g] | Biodistribution Kidneys [6] [% ID/g] | Biodistribution Liver [6] [% ID/g] | Biodistribution Lung [6] [% ID/g] | Biodistribution Muscle [6] [% ID/g] | Biodistribution Pancreas [6] [% ID/g] | Biodistribution Spleen [6] [% ID/g] | Biodistribution Stomach [6] [% ID/g] | Biodistribution Tumor [6] [% ID/g] | Biodistribution Adrenals [7] [% ID/g] | Biodistribution Blood [7] [% ID/g] | Biodistribution Bone [7] [% ID/g] | Biodistribution Heart [7] [% ID/g] | Biodistribution Intestine [7] [% ID/g] | further results |
| --- | --- | --- | --- | --- | --- | --- | --- | --- | --- | --- | --- | --- | --- | --- | --- | --- | --- | --- | --- | --- | --- |
| O=C(O)CC[C@H](NC(=O)N[C@@H](CCCCNC(=O)[C@H](Cc1ccc2ccccc2c1)NC(=O)c1ccc(CNC(=O)[C@H](CCC(=O)O)NC(=O)[C@H](CCC(=O)O)NC(=O)c2ccc(F)nc2)cc1)C(=O)O)C(=O)O [[^18/19F]PSMA-1007] |  |  |  |  |  |  |  |  |  |  |  |  |  |  |  |  |  |  |  |  | IC50 (PSMA [1]): 4.2 ± 0.5 nM |
| CC(C)(C)[Si](F)(c1ccc(C(=O)O)cc1)C(C)(C)C [SiFA-moiety, 4-(di-tert-butylfluorosilyl)benzoic acid] |  |  |  |  |  |  |  |  |  |  |  |  |  |  |  |  |  |  |  |  | log P [2]: 3.6 |
| CC(C)(C)[Si]([18F])(c1ccc(C(=O)NC[C@@H](NC(=O)CC[C@H](C(=O)O)N2CCN(CC(=O)[O-])CCN(CC(=O)[O-])CCN(CC(=O)[O-])CC2)C(=O)N[C@H](CCCCNC(=O)CCC(=O)NCCC[C@@H](NC(=O)CC[C@H](NC(=O)N[C@@H](CCC(=O)O)C(=O)O)C(=O)O)C(=O)O)C(=O)O)cc1)C(C)(C)C.[Ga+3] [[^18F, ^natGa]rhPSMA-7.1] | 98 | 70 ± 5 % of reference | 2.0 ± 0.25 | 0.53 ± 0.13 | 0.50 ± 0.31 | 0.53 ± 0.03 | 0.30 ± 0.16 | 220 ± 24.8 | 0.75 ± 0.62 | 1.1 ± 0.21 | 0.32 ± 0.30 | 0.45 ± 0.12 | 20.0 ± 4.2 | 0.28 ± 0.17 | 14.1 ± 4.1 | 0.003 ± 0.004 | 0.86 ± 0.40 | 0.33 ± 0.24 | 0.37 ± 0.16 | 0.66 ± 0.32 | Affinity fold higher than that of [19F]DCFPyL (PSMA [5]): 1.8 fold; Biodistribution Kidneys [7]: 10.9 ± 2.5 % ID/g; Biodistribution Liver [7]: 0.43 ± 0.07 % ID/g; Biodistribution Lung [7]: 0.85 ± 0.29 % ID/g; Biodistribution Muscle [7]: 0.17 ± 0.15 % ID/g; Biodistribution Pancreas [7]: 0.16 ± 0.10 % ID/g; Biodistribution Spleen [7]: 0.21 ± 0.08 % ID/g; Biodistribution Stomach [7]: 0.97 ± 0.81 % ID/g; Biodistribution Tumor [7]: 0.94 ± 0.22 % ID/g; Abundance (enrichment) of the isomer in tissue compared to time point of injection (LNCaP tumor-bearing mice): higher |
| O=C(O)CC[C@H](NC(=O)N[C@@H](CCCCNC(=O)c1ccc(F)nc1)C(=O)O)C(=O)O [[^18/19F]DCFPyL] |  |  |  |  |  |  |  |  |  |  |  |  |  |  |  |  |  |  |  |  | Lipophilicity Log D ([8]; listed as [^18F]DCFPyL): -3.4 ± 0.03; HSA-binding (human serum albumin [9]): 14%; Internalization (internalized activity) (LNCaP cells [10]): 118 ± 4 % of reference |
| CC(C)(C)[Si]([18F])(c1ccc(C(=O)NC[C@@H](NC(=O)CC[C@@H](C(=O)O)N2CCN(CC(=O)[O-])CCN(CC(=O)[O-])CCN(CC(=O)[O-])CC2)C(=O)N[C@H](CCCCNC(=O)CCC(=O)NCCC[C@@H](NC(=O)CC[C@H](NC(=O)N[C@@H](CCC(=O)O)C(=O)O)C(=O)O)C(=O)O)C(=O)O)cc1)C(C)(C)C.[Ga+3] [[^18F, ^natGa]rhPSMA-7.3] | 97 | 161 ± 9 % of reference | 2.2 ± 0.83 | 0.96 ± 0.24 | 0.38 ± 0.32 | 0.87 ± 0.17 | 0.35 ± 0.07 | 292 ± 45.1 | 0.69 ± 0.13 | 2.2 ± 0.35 | 0.33 ± 0.15 | 0.63 ± 0.44 | 16.6 ± 2.6 | 0.44 ± 0.23 | 18.3 ± 7.2 | 0.07 ± 0.09 | 0.55 ± 0.14 | 0.34 ± 0.22 | 0.26 ± 0.04 | 0.94 ± 0.97 | Biodistribution Kidneys [7]: 15.5 ± 2.2 % ID/g; Biodistribution Liver [7]: 0.46 ± 0.14 % ID/g; Biodistribution Lung [7]: 0.69 ± 0.10 % ID/g; Biodistribution Muscle [7]: 0.09 ± 0.02 % ID/g; Biodistribution Pancreas [7]: 0.11 ± 0.02 % ID/g; Biodistribution Spleen [7]: 0.35 ± 0.02 % ID/g; Biodistribution Stomach [7]: 0.76 ± 0.74 % ID/g; Biodistribution Tumor [7]: 1.5 ± 0.4 % ID/g; Abundance (enrichment) of the isomer in tissue compared to time point of injection (LNCaP tumor-bearing mice): higher |
| O=C(O)CC[C@H](NC(=O)N[C@@H](CCCCNC(=O)[C@H](Cc1ccc2ccccc2c1)NC(=O)c1ccc(CNC(=O)[C@H](CCC(=O)O)NC(=O)[C@H](CCC(=O)O)NC(=O)c2ccc([18F])nc2)cc1)C(=O)O)C(=O)O [[^18/19F]PSMA-1007] |  |  |  |  |  |  |  |  |  |  |  |  |  |  |  |  |  |  |  |  | Lipophilicity Log D ([8]; listed as [^18F]PSMA-1007): -1.6 ± 0.02; HSA-binding (human serum albumin [9]): 98%; HSA-binding (human serum albumin [9]; listed as [^19F]PSMA-1007): > 96%; Internalization (internalized activity) (LNCaP cells [10]): 118 ± 5 % of reference |
